“Also recorded” adds a separate entry of the source. Where two headings read alike, the source gives them in different places.
Assays:
[1] = tested on: Arabidopsis thaliana Columbia (Col0) seedlings; test: Primary root elongation of etiolated seedlings on compound medium; format: in vivo
[2] = tested on: Arabidopsis thaliana Columbia (Col0) seedlings; test: Lateral root initiation (lateral roots + lateral root primordia, number and density); format: in vivo
[3] = tested on: Arabidopsis thaliana seeds; test: Arabidopsis thaliana seed germination assay; format: in vivo
tobacco epidermal strips = test: Stomatal closure assay on epidermal strips; format: cell-based, Nicotiana tabacum
[4] = tested on: etiolated Arabidopsis thaliana seedlings
[5] = tested on: Arabidopsis thaliana seedlings
[6] = 13 d old etiolated seedlings, 10 μM

CCOP(=O)(Nc1cccnc1)c1ccccc1 (stereo not shown) [Analogue D3, Ethyl N-(pyridin-3-yl)-P-(phenyl)phosphonamidate]
PR ([1]; in vivo): 0
effect on primary root growth ([1]; in vivo): did not show a significant effect
LR ([2]; in vivo): 0
effect on LR+ LRP density (per cm primary root) ([2]; in vivo): increased the LR density
effect on number of LR+ LRP (lateral root initiation) ([2]; in vivo): enhanced lateral root induction
Seed germination ([3]; in vivo): 0
Stomata (tobacco epidermal strips): 0
effect on stomatal aperture (tobacco epidermal strips): intermediate stomatal closure
AR ([4]; in vivo): 0
Shoot ([5]; in vivo): 0

CCOP(=O)(NCc1cccnc1)c1ccc(F)c2ccccc12 (stereo not shown) [Analogue E5, Ethyl N-(pyridin-3-ylmethyl)-P-(4-fluoronapht-1-yl)phosphonamidate]
PR ([1]; in vivo): +
effect on primary root growth ([1]; in vivo): modest inhibitors of primary root elongation
LR ([2]; in vivo): +
effect on number of LR+ LRP (lateral root initiation) ([2]; in vivo): modest to weak inhibitors of lateral root formation
Seed germination ([3]; in vivo): +++
effect on seed germination ([3]; in vivo): significant reduction of the percentage of germinating seeds
Stomata (tobacco epidermal strips): +
effect on stomatal aperture (tobacco epidermal strips): intermediate stomatal closure
AR ([4]; in vivo): 0
Shoot ([5]; in vivo): 0

CCOP(=O)(NCc1ccccn1)c1ccc(F)c2ccccc12 (stereo not shown) [Analogue E2, Ethyl N-(pyridin-2-ylmethyl)-P-(4-fluoronapht-1-yl)phosphonamidate]
PR ([1]; in vivo): 0
effect on primary root growth ([1]; in vivo): did not show a significant effect
LR ([2]; in vivo): +
effect on LR+ LRP density (per cm primary root) ([2]; in vivo): reduced the numbers of LR+ LRP similarly to ABA
effect on number of LR+ LRP (lateral root initiation) ([2]; in vivo): modest to weak inhibitors of lateral root formation
Seed germination ([3]; in vivo): 0
Stomata (tobacco epidermal strips): +++
stomata closure to % of the start opening (tobacco epidermal strips): 50%
time to 50% of closure of stomata (tobacco epidermal strips): 30 min
AR ([4]; in vivo): −
effect on adventitious root formation ([4]; in vivo): stimulated AR formation
Shoot ([5]; in vivo): −
effect on shoot development ([5]; in vivo): stimulated the development of leaves in comparison with the control

CCOP(=O)(NCc1cccnc1)c1ccc(Br)c2ccccc12 (stereo not shown) [Analogue E3, Ethyl N-(pyridin-3-ylmethyl)-P-(4-bromonapht-1-yl)phosphonamidate]
PR ([1]; in vivo): 0
effect on primary root growth ([1]; in vivo): did not show a significant effect
LR ([2]; in vivo): +
effect on LR+ LRP density (per cm primary root) ([2]; in vivo): reduced the numbers of LR+ LRP similarly to ABA
effect on number of LR+ LRP (lateral root initiation) ([2]; in vivo): modest to weak inhibitors of lateral root formation
Seed germination ([3]; in vivo): 0
Stomata (tobacco epidermal strips): ++
effect on stomatal aperture (tobacco epidermal strips): intermediate stomatal closure
AR ([4]; in vivo): −
Shoot ([5]; in vivo): 0

CCOP(=O)(NCc1ccccc1)c1ccc(F)c2ccccc12 (stereo not shown) [Analogue E6, Ethyl N-(benzyl)-P-(4-fluoronapht-1-yl)phosphonamidate]
PR ([1]; in vivo): ++
effect on primary root growth ([1]; in vivo): reducing the root growth comparable to pyrabactin
LR ([2]; in vivo): +++
effect on LR+ LRP density (per cm primary root) ([2]; in vivo): strong density reduction (even stronger than ABA)
effect on number of LR+ LRP (lateral root initiation) ([2]; in vivo): strong inhibitors
Seed germination ([3]; in vivo): 0
effect on seed germination ([3]; in vivo): did not inhibit the germination
Stomata (tobacco epidermal strips): +++
effect on stomatal aperture (tobacco epidermal strips): strongly induced stomatal closure
AR ([4]; in vivo): +++
effect on adventitious root formation ([4]; in vivo): reduction of adventitious root formation, respectively stronger or similar to pyrabactin
Shoot ([5]; in vivo): ++
effect on shoot development ([5]; in vivo): inhibition of leaf size comparable with pyrabactin

O=S(=O)(NCc1ccccn1)c1ccc(Br)c2ccccc12 [Pyrabactin, pyrabactin]
reduction of primary root length ([1]; 10 μM): 2.5 fold
PR ([1]; primary root, 10 μM, compared with control not-treated seedlings): ++
effect on LR+ LRP density (per cm primary root) [2, 6]: significantly increased the LR+ LRP density
effect on number of LR+ LRP (lateral root initiation) [2, 6]: only did moderately affect lateral root initiation
LR ([2]; lateral root, 10 μM, compared with control not-treated seedlings): ++
Seed germination ([3]; 10 μM, compared with control not-treated seeds): ++
effect on seed germination ([3]; different concentrations, gradual and dose-dependent): inhibited seed germination
Stomata (tobacco epidermal strips; 10 μM, compared with control not-treated epidermal strips): +
effect on stomatal aperture (tobacco epidermal strips; 10 μM, listed as pyrabactin): induced stomatal closure, rapidly but to a much lower degree than ABA; also recorded: demonstrated an effect on the stomata
effect on adventitious root formation ([4]; 10 μM): reduced the formation of these roots
AR ([4]; adventitious root, 10 μM, compared with control not-treated seedlings): +++
effect on shoot development ([5]; 10 μM): leaf size was also significantly reduced
Shoot ([5]; 10 μM, compared with control not-treated seedlings): ++
effect on shoot development ([5]; 10 μM, listed as pyrabactin): seedlings with a smaller shoot than control seedlings

CCOP(=O)(NCc1ccccc1)c1ccc(Br)c2ccccc12 (stereo not shown) [Analogue E4, Ethyl N-(benzyl)-P-(4-bromonapht-1-yl)phosphonamidate]
PR ([1]; in vivo): +++
effect on primary root growth ([1]; in vivo): strongly inhibited primary root growth
LR ([2]; in vivo): +++
effect on LR+ LRP density (per cm primary root) ([2]; in vivo): strong density reduction (even stronger than ABA)
effect on number of LR+ LRP (lateral root initiation) ([2]; in vivo): strong inhibitors
Seed germination ([3]; in vivo): +
effect on seed germination ([3]; in vivo): did not inhibit the germination
Stomata (tobacco epidermal strips): ++
effect on stomatal aperture (tobacco epidermal strips): intermediate stomatal closure
AR ([4]; in vivo): +++
cellular toxicity (inhibitory effect on plant development) ([4]; in vivo): exhibits cellular toxicity at the concentration used
effect on adventitious root formation ([4]; in vivo): reduction of adventitious root formation, respectively stronger or similar to pyrabactin
Shoot ([5]; in vivo): +++
effect on shoot development ([5]; in vivo): strong inhibition of the seedling's shoot development

CCOP(=O)(OCc1ccccn1)c1ccccc1 (stereo not shown) [Analogue D2, Ethyl (pyridin-2-ylmethyl) phenylphosphonate]
PR ([1]; in vivo): 0
effect on primary root growth ([1]; in vivo): did not show a significant effect
LR ([2]; in vivo): 0
effect on LR+ LRP density (per cm primary root) ([2]; in vivo): did not significantly affect the LR numbers
effect on number of LR+ LRP (lateral root initiation) ([2]; in vivo): did not have a significant effect
Seed germination ([3]; in vivo): 0
Stomata (tobacco epidermal strips): 0
effect on stomatal aperture (tobacco epidermal strips): did not affect the size of the stomatal aperture
AR ([4]; in vivo): 0
Shoot ([5]; in vivo): 0

CCOP(=O)(NCc1ccncc1)c1ccc(Br)c2ccccc12 (stereo not shown) [Analogue E7, Ethyl N-(pyridin-4-ylmethyl)-P-(4-bromonapht-1-yl)phosphonamidate]
PR ([1]; in vivo): +++
effect on primary root growth ([1]; in vivo): strongly inhibited primary root growth
LR ([2]; in vivo): +++
LR+ LRP density ([2]; in vivo): around 5 LR+ LRP per cm primary root
effect on number of LR+ LRP (lateral root initiation) ([2]; in vivo): strong inhibitors
Seed germination ([3]; in vivo): 0
Stomata (tobacco epidermal strips): 0
effect on stomatal aperture (tobacco epidermal strips): did not affect the size of the stomatal aperture
AR ([4]; in vivo): +++
effect on adventitious root formation ([4]; in vivo): reduction of adventitious root formation, respectively stronger or similar to pyrabactin
Shoot ([5]; in vivo): +++
effect on shoot development ([5]; in vivo): strong inhibition of the seedling's shoot development
